The values that follow come from patent US20190336537A1, “GENERATING ATRIAL AND VENTRICULAR CARDIOMYOCYTE LINEAGES FROM HUMAN PLURIPOTENT STEM CELLS” (UNIVERSITY HEALTH NETWORK, priority 2016, published 2019).

Common to all, as to format: cell-based, human
Experiment [1] concerns HES3 NKX2-5:GFP reporter hESC line derived cardiomyocytes. Description: qRT-PCR analysis of atrial and ventricular gene expression in day 20 hPSC-derived cardiomyocytes. In general terms: Quantitative PCR measures a nucleic acid by following its amplification.
Experiment [2] concerns HES3 NKX2-5:GFP hESC-derived day 20 EB populations. Description: Flow cytometric and immunostaining analyses of day 20 EB populations (CTNT, MLC2V, NKX2-5, COUPTFII). Further details: frequency of NKX2-5+SIRPa+ cells in day 20 populations: dose or concentration left out as unconfirmed. How it is done: (§1) For cardiac differentiation, we used a modified version of our embryoid body (EB)-based protocol (Kattman et al., 2011). hPSC populations at 80%-90% confluence were dissociated into single cells (TrypLE, ThermoFisher) and re-aggregated to form EBs in StemPro-34 media (ThermoFisher) containing penicillin/streptomycin (1%, ThermoFisher), L-glutamine (2 mM, ThermoFisher), trans-ferrin (150 μg/ml, ROCHE), ascorbic acid (50 μg/ml, Sigma), and monothioglycerol (50 μg/ml, Sigma), ROCK inhibitor Y-27632 (10 μM, TOCRIS) and rhBMP4 (1 ng/ml, R&D) for 18 h on an orbital shaker. At day 1, the EBs were transferred to mesoderm induction media consisting of StemPro-34 with above supplements (-ROCK inhibitor Y-27632) and rhBMP4, rhActivinA (R&D) and rhbFGF (5 ng/ml, R&D) at the indicated concentrations. At day 3, the EBs were harvested, washed with IMDM and transferred to cardiac mesoderm specification media consisting of StemPro-34, the Wnt inhibitor IWP2 (1 μM, TOCRIS) and rhVEGF (10 ng/mL, R&D). At day 5, the EBs were transferred to Stem Pro-34 with rhVEGF (5 ng/ml) for another 7 days and then to Stem Pro-34 media without additional cytokines for further 8 days. At day 20, HES3-NKX2-5gfp/w-derived cardiomyocytes were analyzed and isolated based on the expression of NKX2-5:GFP and SIRPa and a lack of CD90. Cardiomyocytes generated from non-transgenic hPSC lines were analyzed and isolated as SIRPa+CD90− populations. Media was changed every 3 days. Cultures were incubated in a low oxygen environment (5% CO2, 5% O2, 90% N2) for first 12 days and a normoxic environment (5% CO2) for the following 8 days in total of 20 days. The EBs were cultured in ultra-low attachment 6-well dishes (Corning) throughout the differentiation for maintaining suspension cultures.
Day 2-6 EBs were dissociated with TrypLE for 2-4 min at room temperature (RT). Day 20 EBs were dissociated by incubation in Collagenase type 2 (0.5 mg/ml, Worthington) in HANKs buffer overnight at RT followed by TrypLE treatment as described above. The following antibodies were used for staining: anti-PDGFRa-PE (R&D Systems, 3:50), anti-CD235a-APC (BD PharMingen, 1:100), antiSIRPa-PeCy7 (Biolegend, 1:1000), anti-CD90-APC (BD PharMingen, 1:1000), anticardiac isoform of CTNT (ThermoFisher Scientific, 1:2000), or anti-myosin light chain 2 (Abcam, 1:1000). For unconjugated primary antibodies, the following secondary antibodies were used for detection: goat anti-mouse IgG-APC (BD Pharmigen, 1:250), or donkey anti-rabbit IgG-PE (Jackson ImmunoResearch, 1:250). Detailed antibody information is described in Table 2.
For cell-surface marker analyses, cells were stained for 30 min at 4 degrees C. in FACS buffer consisting of PBS with 5% fetal calf serum (FCS) (Wisent) and 0.02% sodium azide. For intracellular staining, cells were fixed for 15 min at 4 degrees C. with 4% PFA in PBS followed by permeabilization using 90% methanol for 20 min at 4 degrees C. Cells were washed with PBS containing 0.5% BSA (Sigma) and stained with unconjugated primary antibodies in FACS buffer overnight at 4 degrees C. Stained cells were washed with PBS with 0.5% BSA and stained with secondary antibodies in FACS buffer for 1 h at 4 degrees C.
Stained cells were analyzed using the LSR II Flow cytometer (BD). For cell sorting, stained cells were kept in IMDM with 0.5% FCS and sorted using Influx (BD), FACSAriall (BD), MoFlo-XDP (BD) and FACSAria Fusion (BD) at the Sickids/UHN flow cytometry facility. Data were analyzed using FlowJo software (Tree Star).
Day 20 EBs were dissociated as described above and the cells plated onto 12 mm cover glasses (VWR) pre-coated with matrigel (25% v/v, BD). Cells were cultured for 3-5 days to enable the formation of adherent cell monolayers. Cells were fixed with
4% PFA in PBS for 10 min at room temperature and permeabilized with PBS containing 0.3% TritonX, 200 mM Glycine (Sigma) for 20 min at RT. Cells were blocked with PBS containing 10% FCS, 0.1% TritonX, and 2% BSA. […]

For experiment [3], the system named is HES3 NKX2-5:GFP reporter hESC line derived cardiomyocytes. Description: qRT-PCR analysis of atrial and ventricular gene expression in day 20 hPSC-derived cardiomyocytes. As for the experimental part:
To determine if retinoic acid signaling can specify an atrial fate in hPSC-derived cardiogenic populations generated with our embryoid-body (EB)-based protocol, all trans retinoic acid (RA) was added to the differentiation cultures at 4 different time points that represent the following developmental stages: mesoderm induction (day 3), cardiovascular specification (day 5), cardiac progenitor development (day 7) and emergence of contracting cardiomyocytes (day 9) (Kattman et al., 2011) (FIG. 1A). The HES3 NKX2-5: GFP reporter hESC line was used for these experiments to allow us to monitor and quantify cardiovascular development and to isolate GFP+ cardiomyocytes. At day 20 of culture, GFP+SIRPA+CD90− cardiomyocytes were isolated from the differentiated populations and analyzed by RTqPCR for expression of genes indicative of atrial and ventricular development. (FIGS. 1B-D and 8B-E).
as §1
Total RNA from hPSC-derived populations was isolated using RNAqueous-micro Kit including RNase-free DNase treatment (Ambion). RNA from dissected ventricular and atrial tissue of human fetal hearts was isolated using the TRIzol method (ThermoFisher) and treated with DNase (Ambion). Between 100 ng and […] of isolated RNA was reverse transcribed into cDNA using oligo (dT) primers and random hexamers and Superscript III Reverse Transcriptase (ThermoFisher). QRT-PCR was performed on an EP Real-Plex MasterCycler (Eppendorf) using QuantiFast SYBR Green PCR kit (QIAGEN). All experiments were prepared in duplicates and included a 10-fold dilution series of sonicated human genomic DNA standards ranging from 25 ng/ml to 2.5 μg/ml for evaluating the efficiency of PCR reaction and the copy number of each gene relative to the house keeping gene TBP. […]
The source holds these as a separate data set.

Setting [4] is: day 3 RA-treated mesoderm versus non-treated control.
Where [5] appears, read: RA added at days 3 and 5, day 20.
[6] abbreviates: day 3 RA-treated mesoderm versus non-treated.

Take `CC1=C(/C=C/C(C)=C/C=C/C(C)=C/C(=O)O)C(C)(C)CCC1` [RA, all trans retinoic acid]: in experiment [1] (4 mM RA), the “expression of KCNJ3, CACNA1D and NR2F2 in VI versus AI cardiomyocytes” value is given as “Comparable expression levels”. In addition, the “expression of ventricular genes MYL2 and IRX4 in the VI population” value in experiment [1] (RA 1-2 mM) was “completely suppress”. The “expression of MYL2 and KCNJ3” value in experiment [1] (RA added at later stages (days 7 and 12)) is on record as “no effect”. Further, the “expression level of KCNA5 in cardiomyocytes from VI EBs” value in experiment [1] (RA increased from 0.5 to 1-2 mM) is “did increase”. Also, in experiment [1] (RA up to 2 mM), the “expression of KCNJ3, CACNA1D and NR2F2 in VI cardiomyocytes to levels of AI cells” value is “failed to increase”. In experiment [2] (RA), the “frequency of NKX2-5+SIRPa+ cells in day 20 populations” value was “dramatic reduction”. For the same compound, in experiment [2] (RA treatment days 3-5, day 20), the “proportion of NKX2-5-GFP− cells” value is recorded as “did not influence”. Moreover, in experiment [2] (setting [4]), the “frequency of COUPTFII+ cells” value was “much higher frequency” and the “proportion of MLC2V+ cells” value is given as “dramatic reduction”. Also, in experiment [3] (setting [5]), the “expression of atrial ion channel gene KCNJ3” value was “upregulation” and the “expression of ventricular-specific gene MYL2” value is “significant reduction”. Besides, the “expression of pan-cardiomyocyte marker CTNT” value in experiment [3] (RA added at different time points, 10B/6A induced, day 20) was “None of the RA treatments significantly altered”. Also, in experiment [3] (setting [6]), the “expression of atrial markers NR2F2, TBX5, NPPA, MYL7, CACNA1D, KCNA5, GJA5” value was “reverse pattern”; the “expression of ventricular markers IRX4 and MYH7” value is “lower levels”.
